Measurements as given in ChEMBL document CHEMBL4602670, “Palhinosides A-H: Flavone Glucosidic Truxinate Esters with Neuroprotective Activities from Palhinhaea cernua” (J Nat Prod, 2020).
Active and inactive are the calls of the source. The rule behind the calls is not given here.

Each compound was assayed on HT-22 (assay: Neuroprotective activity in mouse HT22 assessed as decrease in glutamate-induced ROS generation preincubated for 8 hrs followed by addition of 2,7-dichlorofluorescein diacetate and measured after 30 mins by fluorescence based assay).
Format: functional, cell-based

Structure (SMILES)	Activity
COC(=O)[C@H]1[C@@H](C(=O)OC[C@H]2O[C@@H](Oc3cc(O)c4c(=O)cc(-c5ccc(O)cc5)oc4c3)[C@H](O)[C@@H](O)[C@@H]2O)[C@H](c2ccc(O)cc2)[C@@H]1c1ccc(O)cc1	Dose-dependent effect

What follows are compounds tested on HT-22 (assay: Neuroprotective activity against glutamate-induced cell damage in mouse HT22 assessed as increase cell viability at 0.6 to 15 uM after 24 hrs by luminescent cell viability assay).
Format: functional, cell-based

Structure (SMILES)	Activity
O=C(OC[C@H]1O[C@@H](Oc2cc(O)c3c(=O)cc(-c4ccc(O[C@H]5O[C@@H](CO)[C@H](O)[C@@H](O)[C@@H]5O)cc4)oc3c2)[C@H](O)[C@@H](O)[C@@H]1O)[C@H]1[C@H](C(=O)OC[C@H]2O[C@@H](Oc3cc(O)c4c(=O)cc(-c5ccc(O[C@H]6O[C@@H](CO)[C@H](O)[C@@H](O)[C@@H]6O)cc5)oc4c3)[C@H](O)[C@@H](O)[C@@H]2O)[C@H](c2ccc(O)cc2)[C@H]1c1ccc(O)cc1	inactive
O=C(OC[C@H]1O[C@@H](Oc2cc(O)c3c(=O)cc(-c4ccc(O)cc4)oc3c2)[C@H](O)[C@@H](O)[C@@H]1O)[C@@H]1[C@H](C(=O)OC[C@H]2O[C@@H](Oc3cc(O)c4c(=O)cc(-c5ccc(O)cc5)oc4c3)[C@H](O)[C@@H](O)[C@@H]2O)[C@@H](c2ccc(O)cc2)[C@H]1c1ccc(O)cc1	inactive
O=C(OC[C@H]1O[C@@H](Oc2cc(O)c3c(=O)cc(-c4ccc(O)cc4)oc3c2)[C@H](O)[C@@H](O)[C@@H]1O)[C@H]1[C@H](C(=O)OC[C@H]2O[C@@H](Oc3cc(O)c4c(=O)cc(-c5ccc(O[C@H]6O[C@@H](CO)[C@H](O)[C@@H](O)[C@@H]6O)cc5)oc4c3)[C@H](O)[C@@H](O)[C@@H]2O)[C@H](c2ccc(O)cc2)[C@H]1c1ccc(O)cc1	inactive
O=C(OC[C@H]1O[C@@H](Oc2cc(O)c3c(=O)cc(-c4ccc(O[C@H]5O[C@@H](CO)[C@H](O)[C@@H](O)[C@@H]5O)cc4)oc3c2)[C@H](O)[C@@H](O)[C@@H]1O)[C@@H]1[C@H](C(=O)OC[C@H]2O[C@@H](Oc3cc(O)c4c(=O)cc(-c5ccc(O)cc5)oc4c3)[C@H](O)[C@@H](O)[C@@H]2O)[C@@H](c2ccc(O)cc2)[C@H]1c1ccc(O)cc1	inactive

These compounds were tested on HT-22 (assay: Neuroprotective activity against glutamate-induced cell damage in mouse HT22 assessed as increase cell viability at 1.3 to 15 uM after 24 hrs by luminescent cell viability assay).
Format: functional, cell-based

Structure (SMILES)	Activity
COC(=O)[C@H]1[C@@H](C(=O)OC[C@H]2O[C@@H](Oc3cc(O)c4c(=O)cc(-c5ccc(O)cc5)oc4c3)[C@H](O)[C@@H](O)[C@@H]2O)[C@H](c2ccc(O)cc2)[C@@H]1c1ccc(O)cc1	Active
Cc1c(C)c2c(c(C)c1O)CCC(C)(C(=O)O)O2 (stereo not given)	Active
COC(=O)[C@H]1[C@@H](C(=O)OC[C@H]2O[C@@H](Oc3cc(O)c4c(=O)cc(-c5ccc(O[C@@H]6O[C@H](CO)[C@@H](O)[C@H](O)[C@H]6O)cc5)oc4c3)[C@H](O)[C@@H](O)[C@@H]2O)[C@H](c2ccc(O)cc2)[C@@H]1c1ccc(O)cc1	Active
COC(=O)[C@H]1[C@H](C(=O)OC[C@H]2O[C@@H](Oc3cc(O)c4c(=O)cc(-c5ccc(O)cc5)oc4c3)[C@H](O)[C@@H](O)[C@@H]2O)[C@H](c2ccc(O)cc2)[C@H]1c1ccc(O)cc1	Active
COC(=O)[C@H]1[C@H](C(=O)OC[C@H]2O[C@@H](Oc3cc(O)c4c(=O)cc(-c5ccc(O[C@@H]6O[C@H](CO)[C@@H](O)[C@H](O)[C@H]6O)cc5)oc4c3)[C@H](O)[C@@H](O)[C@@H]2O)[C@H](c2ccc(O)cc2)[C@H]1c1ccc(O)cc1	Active
